Source: patent publication US20030095958A1, “Inhibitors of bace” (priority 2001, published 2003)

Target: BACE (Homo sapiens, UniProt P56817)
Assay: Ki Determination for the Inhibition of BACE (FS-1 peptide fluorescence cleavage assay)
Assay type: biochemical
Conditions: apparent Ki; 50 nM BACE, 10 μM FS-1 substrate, 0.1M sodium acetate pH 4.5
Procedure, shortened: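 Apparent Ki values derive from fitting fluorescence progress data (355 nm excitation, 495 nm emission) of FS-1 peptide cleavage to an integrated competitive tight-binding model. Reactions held 50 nM BACE, 10 μM substrate and inhibitor in 2% DMSO, pH 4.5 acetate buffer, with a 15 min enzyme-compound preincubation at room temperature.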

BACE, sequence (P56817 46-501): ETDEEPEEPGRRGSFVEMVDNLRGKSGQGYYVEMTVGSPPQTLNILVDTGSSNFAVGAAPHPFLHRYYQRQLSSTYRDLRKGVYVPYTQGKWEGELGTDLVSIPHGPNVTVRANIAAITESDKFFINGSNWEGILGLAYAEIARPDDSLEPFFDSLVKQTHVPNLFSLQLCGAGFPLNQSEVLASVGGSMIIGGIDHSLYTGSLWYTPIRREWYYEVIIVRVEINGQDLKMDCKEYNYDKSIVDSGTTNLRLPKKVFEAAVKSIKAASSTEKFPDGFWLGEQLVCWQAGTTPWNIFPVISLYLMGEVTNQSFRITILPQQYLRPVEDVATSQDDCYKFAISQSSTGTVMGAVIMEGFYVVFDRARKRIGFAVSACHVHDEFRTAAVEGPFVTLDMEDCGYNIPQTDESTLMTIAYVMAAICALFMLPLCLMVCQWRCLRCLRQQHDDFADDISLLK

SMILES | Ki [µM]
CN(C)C(=O)C1CN(c2ccc(-c3ccc(C(F)(F)F)cc3)cc2NCc2ccc3ccccc3c2)CCN1 (stereo not shown) [Compound 195, 4-{3-[(Naphthalen-2-ylmethyl)-amino]-4′-trifluoromethyl-biphenyl-4-yl}-piperazine-2-carboxylic acid dimethylamide] | < 3
O=C(Nc1ccc(-c2ccc(C(F)(F)F)cc2)cc1N1CCNCC1)c1cccc2ccccc12 [Compound 174, Naphthalene-1-carboxylic acid (3-piperazin-1-yl-4′-trifluoromethyl-biphenyl-4-yl)-amide] | < 3
Cc1cc(N2CCNCC2)c(NC(=O)c2cccc3ccccc23)cc1-c1ccc(Cl)c(Cl)c1 [Compound 138, Naphthalene-1-carboxylic acid (3′,4′-dichloro-6-methyl-4-piperazin-1-yl-biphenyl-3-yl)-amide] | < 3
O=C(Nc1cc(-c2ccc(S(=O)(=O)NCc3ccccc3)cc2)ccc1N1CCNCC1)c1cccc2ccccc12 [Compound 146, Naphthalene-1-carboxylic acid (4′-benzylsulfamoyl-4-piperazin-1-yl-biphenyl-3-yl)-amide] | < 3
Cc1ccc(-c2ccc(N3CCNCC3)c(NC(=O)c3cccc4ccccc34)c2)cc1 [Compound 124, Naphthalene-1-carboxylic acid (4′-methyl-4-piperazin-1-yl-biphenyl-3-yl)-amide] | 3 to 30
c1ccc2cc(COc3ccc4c(c3)c3c(n4Cc4ccc5ccccc5c4)CNCC3)ccc2c1 [Compound 519, 6-(Naphthalen-2-ylmethoxy)-9-naphthalen-2-ylmethyl-2,3,4,9-tetrahydro-1H-b-carboline] | < 3
O=C(OCc1ccccc1-c1ccc(C2=CCNCC2)c(COc2ccccc2C(F)(F)F)c1)c1ccccc1C(F)(F)F [Compound 380, 2-Trifluoromethyl-benzoic acid 4′-(1,2,3,6-tetrahydro-pyridin-4-yl)-3′-(2-trifluoromethyl-phenoxymethyl)-biphenyl-2-ylmethyl ester] | < 3
O=C(Nc1ccc2ccccc2c1)C1CNCCN1C(=O)c1cccc(COc2ccccc2C(F)(F)F)c1 (stereo not shown) [Compound 206, 1-[3-(2-Trifluoromethyl-phenoxymethyl)-benzoyl]-piperazine-2-carboxylic acid naphthalen-2-ylamide] | > 30
Cc1cc(Cl)ccc1OCCCC(=O)N1CCNCC1C(=O)Nc1ccc2ccccc2c1 (stereo not shown) [Compound 200, 1-[4-(4-Chloro-2-methyl-phenoxy)-butyryl]-piperazine-2-carboxylic acid naphthalen-2-ylamide] | > 30
CC(C)NC(=O)C1CN(c2ccc(-c3ccc(C(F)(F)F)cc3)cc2NCc2ccc3ccccc3c2)CCN1 (stereo not shown) [Compound 193, 4-{3-[(Naphthalen-2-ylmethyl)-amino]-4′-trifluoromethyl-biphenyl-4-yl}-piperazine-2-carboxylic acid isopropylamide] | < 3
OC1CNCC(COc2ccc3ccccc3c2)C1(O)c1ccc(-c2ccccc2)cc1 (stereo not shown) [Compound 412] | 3 to 30
O=C(Cc1cccc2ccccc12)Nc1cc(C(F)(F)F)ccc1N1CCNCC1 [Compound 134, 2-Naphthalen-1-yl-N-(2-piperazin-1-yl-5-trifluoromethyl-phenyl)-acetamide] | > 30
O=C(Nc1cc(Oc2ccccc2)ccc1N1CCNCC1)c1cccc2ccccc12 [Compound 132, Naphthalene-1-carboxylic acid (5-phenoxy-2-piperazin-1-yl-phenyl)-amide] | 3 to 30
COc1ccc2c(c1)c1c(n2C(=O)c2ccc3ccccc3c2)CNCC1 [Compound 502, (6-Methoxy-1,2,3,4-tetrahydro-b-carbolin-9-yl)-naphthalen-2-yl-methanone] | > 30
O=C(Nc1cc(C(F)(F)F)cc(Cl)c1N1CCNCC1)c1cccc2ccccc12 [Compound 148, Naphthalene-1-carboxylic acid (3-chloro-2-piperazin-1-yl-5-trifluoromethyl-phenyl)-amide] | > 30
O=C(Nc1cc(F)c(-c2ccccc2)cc1N1CCNCC1)c1cccc2ccccc12 [Compound 158, Naphthalene-1-carboxylic acid (2-fluoro-5-piperazin-1-yl-biphenyl-4-yl)-amide] | 3 to 30
CNCCN(C)c1ccc(-c2ccc(C(F)(F)F)cc2)cc1NCc1ccc2ccccc2c1 [Compound 226, N4-Methyl-N4-(2-methylamino-ethyl)-N3-naphthalen-2-ylmethyl-4′-trifluoromethyl-biphenyl-3,4-diamine] | < 3
O=C(O)C1CCCCC1C(=O)NCC1CNCCC1c1ccc(COc2ccccc2C(F)(F)F)cc1 (stereo not shown) [Compound 207, 2-({4-[4-(2-Trifluoromethyl-phenoxymethyl)-phenyl]-piperidin-3-ylmethyl}-carbamoyl)-cyclohexanecarboxylic acid] | > 30
O=C(c1ccc2ccccc2c1)n1c2c(c3cc(OCc4cc(C(F)(F)F)ccc4Cl)ccc31)CCNC2 [Compound 511, [6-(2-Chloro-5-trifluoromethyl-benzyloxy)-1,2,3,4-tetrahydro-b-carbolin-9-yl]-naphthalen-2-yl-methanone] | < 3
O=C(O)c1cc2ccccc2cc1C(=O)NCC1CNCCC1c1ccc(COc2ccccc2C(F)(F)F)cc1 (stereo not shown) [Compound 213, 3-({4-[4-(2-Trifluoromethyl-phenoxymethyl)-phenyl]-piperidin-3-ylmethyl}-carbamoyl)-naphthalene-2-carboxylic acid] | 3 to 30
CC(NC(=O)C1CNCCC1c1ccc(-c2ccccc2)cc1)c1cccc2ccccc12 (stereo not shown) [Compound 407] | 3 to 30
FC(F)Oc1ccccc1COc1ccc2c(c1)c1c(n2Cc2cccc3ccccc23)CNCC1 [Compound 518, 6-(2-Difluoromethoxy-benzyloxy)-9-naphthalen-1-ylmethyl-2,3,4,9-tetrahydro-1H-b-carboline] | < 3
O=C(Nc1cc(C(F)(F)F)ccc1N1CCNCC1)c1ccc2cnccc2n1 [Compound 190, [1,6]Naphthyridine-2-carboxylic acid (2-piperazin-1-yl-5-trifluoromethyl-phenyl)-amide] | 3 to 30
COc1ccc2c(c1)c1c(n2Cc2ccc3ccccc3c2)CNCC1 [Compound 503, 6-Methoxy-9-naphthalen-2-ylmethyl-2,3,4,9-tetrahydro-1H-b-carboline] | > 30
Cc1ccccc1Oc1ccc(N2CCNCC2)c(NC(=O)c2cccc3ccccc23)c1 [Compound 140, Naphthalene-1-carboxylic acid (2-piperazin-1-yl-5-o-tolyloxy-phenyl)-amide] | 3 to 30

Now from value to molecule:

Ki [µM] | SMILES
3 to 30 | COC(=O)c1ccc(C(=O)OCc2ccc(COc3ccccc3C(F)(F)F)cc2C2=CCNCC2)cc1 [Compound 317, Terephthalic acid 1-methyl ester 4-[2-(1,2,3,6-tetrahydro-pyridin-4-yl)-4-(2-trifluoromethyl-phenoxymethyl)-benzyl] ester]
< 3 | COc1ccc(-c2cc(COc3ccccc3C(F)(F)F)c(C3=CCNCC3)cc2COc2ccccc2C(F)(F)F)cc1 [Compound 365, 4-[4′-Methoxy-2,5-bis-(2-trifluoromethyl-phenoxymethyl)-biphenyl-4-yl]-1,2,3,6-tetrahydro-pyridine]
< 3 | O=C(OCc1ccc(COc2ccccc2C(F)(F)F)cc1C1=CCNCC1)Oc1cccc2ccccc12 [Compound 318, Carbonic acid naphthalen-1-yl ester 2-(1,2,3,6-tetrahydro-pyridin-4-yl)-4-(2-trifluoromethyl-phenoxymethyl)-benzyl ester]
< 3 | Oc1cccc(-c2cc(COc3ccccc3C(F)(F)F)c(C3=CCNCC3)cc2COc2ccccc2C(F)(F)F)c1 [Compound 351, 4′-(1,2,3,6-Tetrahydro-pyridin-4-yl)-2′,5′-bis-(2-trifluoromethyl-phenoxymethyl)-biphenyl-3-ol]
< 3 | OCc1ccc(-c2cc(COc3ccccc3C(F)(F)F)c(C3=CCNCC3)cc2COc2ccccc2C(F)(F)F)cc1 [Compound 366, [4′-(1,2,3,6-Tetrahydro-pyridin-4-yl)-2′,5′-bis-(2-trifluoromethyl-phenoxymethyl)-biphenyl-4-yl]-methanol]
< 3 | FC(F)(F)c1ccccc1OCc1ccc(COc2ccc(-c3ccccc3)cc2)c(C2=CCNCC2)c1 [Compound 325, 4-[2-(Biphenyl-4-yloxymethyl)-5-(2-trifluoromethyl-phenoxymethyl)-phenyl]-1,2,3,6-tetrahydro-pyridine]
< 3 | Cc1ccccc1-c1ccc(C2=CCNCC2)c(COc2ccccc2C(F)(F)F)c1 [Compound 374, 4-[2′-Methyl-3-(2-trifluoromethyl-phenoxymethyl)-biphenyl-4-yl]-1,2,3,6-tetrahydro-pyridine]
< 3 | FC(F)(F)c1ccccc1OCc1cc(-c2ccc[nH]2)c(COc2ccccc2C(F)(F)F)cc1C1=CCNCC1 [Compound 358, 4-[4-(1H-Pyrrol-2-yl)-2,5-bis-(2-trifluoromethyl-phenoxymethyl)-phenyl]-1,2,3,6-tetrahydro-pyridine]
3 to 30 | Oc1ccccc1-c1ccc(C2=CCNCC2)c(COc2ccccc2C(F)(F)F)c1 [Compound 362, 4′-(1,2,3,6-Tetrahydro-pyridin-4-yl)-3′-(2-trifluoromethyl-phenoxymethyl)-biphenyl-2-ol]
< 3 | FC(F)(F)c1ccccc1OCc1cc(-c2ccncc2)c(COc2ccccc2C(F)(F)F)cc1C1=CCNCC1 [Compound 341, 4-[4-(1,2,3,6-Tetrahydro-pyridin-4-yl)-2,5-bis-(2-trifluoromethyl-phenoxymethyl)-phenyl]-pyridine]
3 to 30 | CN1CC=C(c2cc(CO)c(-c3ccoc3)cc2COc2ccccc2C(F)(F)F)CC1 [Compound 388, [2-Furan-3-yl-5-(1-methyl-1,2,3,6-tetrahydro-pyridin-4-yl)-4-(2-trifluoromethyl-phenoxymethyl)-phenyl]-methanol]
3 to 30 | FC(F)(F)c1ccccc1OCc1cc(C2=CCNCC2)c(COc2ccccc2C(F)(F)F)cc1C1=CCNCC1 [Compound 334, 4-[4-(1,2,3,6-Tetrahydro-pyridin-4-yl)-2,5-bis-(2-trifluoromethyl-phenoxymethyl)-phenyl]-1,2,3,6-tetrahydro-pyridine]
